Key:
HIV-1, NL4-3 strain = test: Virus infection assay (virus entry and single-cycle infection); format: cell-based; settings: Human immunodeficiency virus 1, NL43, TZM-b1, read-out: Nl4
Outline: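 Single-cycle entry/infection read-out: β-galactosidase chemiluminescence measured one day after infection. Compounds were present during a 4 h, 37 °C exposure of TZM-b1 reporter cells to NL4-3 virus at MOI 0.01 plus DEAE-dextran (80 μg/mL final), followed by addition of complete medium.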

[1] = biological target: T1, HIV Env six-helix bundle (6HB) structure (Human immunodeficiency virus type 1 group M subtype B, UniProt P04579); test: Six-helix bundle (6HB) assay; format: cell-based, HIV-1 (strain RF)
T1 construct: H9 cells chronically infected with HIV-1 (H9/HIV-1RF); endogenous in cells; host or cells: H9 cells chronically infected with HIV-1 strain RF (Env is made from the virus in the infected cells, not by transfection)
Outline: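 Flow cytometry measured binding of a six-helix-bundle-specific polyclonal antibody, detected with PE-labelled secondary at 4 °C for 45 min, on H9/HIV-1 RF chronically infected cells. Compound was given 30 min at 37 °C before 1 μg/mL soluble CD4 induction for 1 h. Inhibition appears as reduced fluorescence.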

T1 sequence (P04579 32-519): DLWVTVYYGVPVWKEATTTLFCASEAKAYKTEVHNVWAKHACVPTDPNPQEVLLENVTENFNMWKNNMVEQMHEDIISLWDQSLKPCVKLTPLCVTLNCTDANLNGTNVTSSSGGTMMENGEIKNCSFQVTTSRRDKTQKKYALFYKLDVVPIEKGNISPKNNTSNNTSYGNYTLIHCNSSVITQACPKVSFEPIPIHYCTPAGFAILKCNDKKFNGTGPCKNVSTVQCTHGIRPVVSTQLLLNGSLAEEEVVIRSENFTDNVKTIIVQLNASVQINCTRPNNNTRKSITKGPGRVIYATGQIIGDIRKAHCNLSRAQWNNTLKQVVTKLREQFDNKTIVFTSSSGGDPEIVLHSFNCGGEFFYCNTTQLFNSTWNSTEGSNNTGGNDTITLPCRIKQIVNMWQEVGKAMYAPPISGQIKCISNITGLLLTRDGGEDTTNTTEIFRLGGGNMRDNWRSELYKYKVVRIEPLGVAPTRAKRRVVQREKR
T1 sequence (P04579 520-865): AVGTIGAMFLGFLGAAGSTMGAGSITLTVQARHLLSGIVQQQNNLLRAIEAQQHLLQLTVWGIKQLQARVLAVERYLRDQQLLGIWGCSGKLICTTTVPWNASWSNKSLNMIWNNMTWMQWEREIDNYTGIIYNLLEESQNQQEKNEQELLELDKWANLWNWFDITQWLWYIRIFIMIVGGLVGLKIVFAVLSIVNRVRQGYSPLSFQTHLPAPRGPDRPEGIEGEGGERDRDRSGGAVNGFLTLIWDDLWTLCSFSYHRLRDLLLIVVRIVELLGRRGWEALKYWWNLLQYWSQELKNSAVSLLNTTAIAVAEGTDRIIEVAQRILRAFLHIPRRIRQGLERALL

Row | Structure (SMILES) | IC50 (HIV-1, NL4-3 strain) [nM] | IC50 [1] [nM]
1 | COc1ccc(-c2nc3c(C(=O)N4CCN([C@@H](C)c5cc(F)cc(F)c5F)C[C@H]4C)cnn3c(C(F)(F)F)c2C)cc1 [methanone, [5-(4-methoxyphenyl)-6-methyl-7-(trifluoromethyl)pyrazolo[1,5-α]pyrimidin-3-yl][(2R)-2-methyl-4-[(1S)-1-(2,3,5-trifluorophenyl)ethyl]-1-piperazinyl]-] | < 1000 | < 1000
2 | COc1ccc(-c2nc3c(C(=O)N4CCN([C@@H](C)c5ccccn5)C[C@H]4C)cnn3c(C(F)(F)F)c2C)cc1 [methanone, [5-(4-methoxyphenyl)-6-methyl-7-(trifluoromethyl)pyrazolo[1,5-α]pyrimidin-3-yl][(2R)-2-methyl-4-[(1S)-1-(2-pyridinyl)ethyl]-1-piperazinyl]-] | < 1000 | < 1000
3 | COc1ccc(-c2nc3c(C(=O)N4CCN([C@@H](C)c5nccs5)C[C@H]4C)cnn3c(C(F)(F)F)c2C)cc1 [methanone, [5-(4-methoxyphenyl)-6-methyl-7-(trifluoromethyl)pyrazolo[1,5-α]pyrimidin-3-yl][(2R)-2-methyl-4-[(1S)-1-(2-thiazolyl)ethyl]-1-piperazinyl]-] | < 1000 | < 1000
4 | COc1ccc(-c2nc3c(C(=O)N4CCN([C@@H](C)c5cccs5)C[C@H]4C)cnn3c(C(F)(F)F)c2C)cc1 [methanone, [5-(4-methoxyphenyl)-6-methyl-7-(trifluoromethyl)pyrazolo[1,5-α]pyrimidin-3-yl][(2R)-2-methyl-4-[(1S)-1-(2-thienyl)ethyl]-1-piperazinyl]-] | < 1000 | < 1000
5 | COc1ccc(-c2nc3c(C(=O)N4CCN([C@@H](C)c5cc(F)c(F)c(F)c5)C[C@H]4C)cnn3c(C(F)(F)F)c2C)cc1 [methanone, [5-(4-methoxyphenyl)-6-methyl-7-(trifluoromethyl)pyrazolo[1,5-α]pyrimidin-3-yl][(2R)-2-methyl-4-[(1S)-1-(3,4,5-trifluorophenyl)ethyl]-1-piperazinyl]-] | < 1000 | < 1000
6 | COc1ccc(-c2nc3c(C(=O)N4CCN([C@@H](C)c5cccnc5)C[C@H]4C)cnn3c(C(F)(F)F)c2C)cc1 [methanone, [5-(4-methoxyphenyl)-6-methyl-7-(trifluoromethyl)pyrazolo[1,5-α]pyrimidin-3-yl][(2R)-2-methyl-4-[(1S)-1-(3-pyridinyl)ethyl]-1-piperazinyl]-] | < 1000 | < 1000
7 | COc1ccc(-c2nc3c(C(=O)N4CCN([C@@H](C)c5ccncc5)C[C@H]4C)cnn3c(C(F)(F)F)c2C)cc1 [methanone, [5-(4-methoxyphenyl)-6-methyl-7-(trifluoromethyl)pyrazolo[1,5-α]pyrimidin-3-yl][(2R)-2-methyl-4-[(1S)-1-(4-pyridinyl)ethyl]-1-piperazinyl]-] | < 1000 | < 1000
8 | COc1ccc(-c2nc3c(C(=O)N4CCN([C@@H](C)c5ccc(S(C)(=O)=O)cc5)C[C@H]4C)cnn3c(C(F)(F)F)c2C)cc1 [methanone, [5-(4-methoxyphenyl)-6-methyl-7-(trifluoromethyl)pyrazolo[1,5-α]pyrimidin-3-yl][(2R)-2-methyl-4-[(1S)-1-[4-(methylsulfonyl)phenyl]ethyl]-1-piperazinyl]-] | 1100 to 10000 | 1100 to 10000
9 | COc1ccc(-c2nc3c(C(=O)N4CCN([C@@H](C)c5ccccc5)C[C@H]4C)cnn3c(C(F)(F)F)c2C)cc1 [methanone, [5-(4-methoxyphenyl)-6-methyl-7-(trifluoromethyl)pyrazolo[1,5-α]pyrimidin-3-yl][(2R)-2-methyl-4-[(1S)-1-phenylethyl]-1-piperazinyl]-] | < 1000 | < 1000
10 | COc1ccc(-c2nc3c(C(=O)N4CCN([C@@H](c5ccccc5)C(F)(F)F)C[C@H]4C)cnn3c(C(F)(F)F)c2C)cc1 [methanone, [5-(4-methoxyphenyl)-6-methyl-7-(trifluoromethyl)pyrazolo[1,5-α]pyrimidin-3-yl][(2R)-2-methyl-4-[(1S)-2,2,2-trifluoro-1-phenylethyl]-1-piperazinyl]-] | < 1000 | < 1000
